The supplement of paper PMC10307832

What was measured:
Test in all cases: relative viability (nuclei count vs DMSO), 5 days (fraction); higher = more cells survive
NCI-H2347 = test system: NCI-H2347
How it was run: (§1)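 Five library-drug doses in √10 steps were combined with a fixed anchor-drug dose, or a single drug was given alone, by pin tool to lung cancer cell lines in 1536-well plates the day after seeding. Nuclei were stained and counted after 5 days. Relative viability is the nuclei count in treated wells over that in vehicle wells, taken as the median of duplicate plates.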

NCI-H2126 = test system: NCI-H2126
How it was run: as §1

H3255 = test system: H3255
How it was run: as §1

PC-14 = test system: PC-14
How it was run: as §1

SK-LU-1 = test system: SK-LU-1
How it was run: as §1

NCI-H2023 = test system: NCI-H2023
How it was run: as §1

SW 1573 = test system: SW 1573
How it was run: as §1

NCI-H647 = test system: NCI-H647
How it was run: as §1

NCI-H727 = test system: NCI-H727
How it was run: as §1

HOP-62 = test system: HOP-62
How it was run: as §1

NCI-H2009 = test system: NCI-H2009
How it was run: as §1

NCI-H1915 = test system: NCI-H1915
How it was run: as §1

NCI-H1650 = test system: NCI-H1650
How it was run: as §1

EMC-BAC-2 = test system: EMC-BAC-2
How it was run: as §1

NCI-H1993 = test system: NCI-H1993
How it was run: as §1

NCI-H322M = test system: NCI-H322M
How it was run: as §1

LCLC-97TM1 = test system: LCLC-97TM1
How it was run: as §1

NCI-H2085 = test system: NCI-H2085
How it was run: as §1

LXF-289 = test system: LXF-289
How it was run: as §1

BEN = test system: BEN
How it was run: as §1

COc1cc(N2CCC(C(N)=O)CC2)ccc1Nc1nc(N)c(Cl)c(Nc2ccccc2S(=O)(=O)C(C)C)n1 [HG-5-88-01] + CC1(C)CCC(c2ccc(Cl)cc2)=C(CN2CCN(c3ccc(C(=O)NS(=O)(=O)c4ccc(N[C@H](CCN5CCOCC5)CSc5ccccc5)c(S(=O)(=O)C(F)(F)F)c4)cc3)CC2)C1 [Navitoclax] (partner 0.5 µM)
relative viability (NCI-H2347; first compound 0.04 µM): 0.786
relative viability (NCI-H2347; first compound 0.1265 µM): 0.863
relative viability (NCI-H2347; first compound 0.4 µM): 0.893
relative viability (NCI-H2347; first compound 1.265 µM): 0.696
relative viability (NCI-H2347; first compound 4 µM): 0.685
relative viability (NCI-H2126; first compound 0.04 µM): 0.88
relative viability (NCI-H2126; first compound 0.1265 µM): 0.882
relative viability (NCI-H2126; first compound 0.4 µM): 0.753
relative viability (NCI-H2126; first compound 1.265 µM): 0.84
relative viability (NCI-H2126; first compound 4 µM): 0.794
relative viability (H3255; first compound 0.04 µM): 0.506
relative viability (H3255; first compound 0.1265 µM): 0.467
relative viability (H3255; first compound 0.4 µM): 0.428
relative viability (H3255; first compound 4 µM): 0.138
relative viability (PC-14; first compound 0.04 µM): 0.953
relative viability (PC-14; first compound 0.1265 µM): 1.05
relative viability (PC-14; first compound 0.4 µM): 0.995
relative viability (PC-14; first compound 1.265 µM): 1.12
relative viability (PC-14; first compound 4 µM): 0.272
relative viability (SK-LU-1; first compound 0.04 µM): 0.997
relative viability (SK-LU-1; first compound 0.1265 µM): 0.99
relative viability (SK-LU-1; first compound 0.4 µM): 0.791
relative viability (SK-LU-1; first compound 1.265 µM): 0.98
relative viability (SK-LU-1; first compound 4 µM): 0.791
relative viability (NCI-H2023; first compound 0.04 µM): 1.01
relative viability (NCI-H2023; first compound 0.1265 µM): 0.94
relative viability (NCI-H2023; first compound 0.4 µM): 0.934
relative viability (NCI-H2023; first compound 1.265 µM): 0.787
relative viability (NCI-H2023; first compound 4 µM): 0.804
relative viability (SW 1573; first compound 0.04 µM): 0.952
relative viability (SW 1573; first compound 0.1265 µM): 1.05
relative viability (SW 1573; first compound 0.4 µM): 0.9
relative viability (SW 1573; first compound 1.265 µM): 0.996
relative viability (SW 1573; first compound 4 µM): 0.863
relative viability (NCI-H647; first compound 0.04 µM): 1.19
relative viability (NCI-H647; first compound 0.1265 µM): 1.26
relative viability (NCI-H647; first compound 0.4 µM): 1.24
relative viability (NCI-H647; first compound 1.265 µM): 1.27
relative viability (NCI-H647; first compound 4 µM): 1.13
relative viability (NCI-H727; first compound 0.04 µM): 0.532
relative viability (NCI-H727; first compound 0.1265 µM): 0.416
relative viability (NCI-H727; first compound 0.4 µM): 0.469
relative viability (NCI-H727; first compound 1.265 µM): 0.224
relative viability (NCI-H727; first compound 4 µM): 0.0929
relative viability (HOP-62; first compound 0.04 µM): 0.987
relative viability (HOP-62; first compound 0.1265 µM): 0.948
relative viability (HOP-62; first compound 0.4 µM): 0.986
relative viability (HOP-62; first compound 1.265 µM): 0.919
relative viability (HOP-62; first compound 4 µM): 1.01
relative viability (NCI-H2009; first compound 0.04 µM): 1.2
relative viability (NCI-H2009; first compound 0.1265 µM): 1.32
relative viability (NCI-H2009; first compound 0.4 µM): 1.15
relative viability (NCI-H2009; first compound 1.265 µM): 1.06
relative viability (NCI-H2009; first compound 4 µM): 1.15
relative viability (NCI-H1915; first compound 0.04 µM): 0.771
relative viability (NCI-H1915; first compound 0.1265 µM): 0.783
relative viability (NCI-H1915; first compound 0.4 µM): 0.813
relative viability (NCI-H1915; first compound 1.265 µM): 0.845
relative viability (NCI-H1915; first compound 4 µM): 0.669
relative viability (NCI-H1650; first compound 0.04 µM): 1.54
relative viability (NCI-H1650; first compound 0.1265 µM): 1.32
relative viability (NCI-H1650; first compound 0.4 µM): 1.26
relative viability (NCI-H1650; first compound 1.265 µM): 0.918
relative viability (NCI-H1650; first compound 4 µM): 1.07
relative viability (EMC-BAC-2; first compound 0.04 µM): 1.11
relative viability (EMC-BAC-2; first compound 0.1265 µM): 1.23
relative viability (EMC-BAC-2; first compound 0.4 µM): 1.12
relative viability (EMC-BAC-2; first compound 1.265 µM): 1.05
relative viability (EMC-BAC-2; first compound 4 µM): 1.22
relative viability (NCI-H1993; first compound 0.04 µM): 1.06
relative viability (NCI-H1993; first compound 0.1265 µM): 0.976
relative viability (NCI-H1993; first compound 0.4 µM): 0.911
relative viability (NCI-H1993; first compound 1.265 µM): 0.736
relative viability (NCI-H1993; first compound 4 µM): 0.735
relative viability (NCI-H322M; first compound 0.04 µM): 1.16
relative viability (NCI-H322M; first compound 0.1265 µM): 1.21
relative viability (NCI-H322M; first compound 0.4 µM): 1.18
relative viability (NCI-H322M; first compound 1.265 µM): 0.907
relative viability (NCI-H322M; first compound 4 µM): 1.26
relative viability (LCLC-97TM1; first compound 0.04 µM): 0.374
relative viability (LCLC-97TM1; first compound 0.1265 µM): 0.689
relative viability (LCLC-97TM1; first compound 0.4 µM): 0.347
relative viability (LCLC-97TM1; first compound 1.265 µM): 0.296
relative viability (LCLC-97TM1; first compound 4 µM): 0.321
relative viability (NCI-H2085; first compound 0.04 µM): 1.2
relative viability (NCI-H2085; first compound 0.1265 µM): 1.26
relative viability (NCI-H2085; first compound 0.4 µM): 1.06
relative viability (NCI-H2085; first compound 1.265 µM): 0.873
relative viability (NCI-H2085; first compound 4 µM): 1.13
relative viability (LXF-289; first compound 0.04 µM): 0.937
relative viability (LXF-289; first compound 0.1265 µM): 0.979
relative viability (LXF-289; first compound 0.4 µM): 0.972
relative viability (LXF-289; first compound 1.265 µM): 1.01
relative viability (LXF-289; first compound 4 µM): 1.02
relative viability (BEN; first compound 0.04 µM): 0.0887
relative viability (BEN; first compound 0.1265 µM): 0.0551
relative viability (BEN; first compound 0.4 µM): 0.0596
relative viability (BEN; first compound 1.265 µM): 0.0568
relative viability (BEN; first compound 4 µM): 0.0605
